Results on 68 molecules are retold here after PubChem BioAssay AID179 (DTP/NCI, 2004).

Structures are written as SMILES. Values joined by “and” are separate entries in the source; they are usually repeats but may differ in a detail not shown here. Identical values can stand only once. Active and inactive are the calls of the source.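 Rule for the calls: active = compounds giving half or more protection of infected cells from virus-caused growth loss, again on retest; inactive = the rest.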 Where a SMILES comes first, the peptide text is derived from it. [ ]: non-standard residue; d: D form. The star is where a group is joined. ξ: configuration not given here. X17 = O=C(OCc1ccccc1)[C@@H]1CCC[C@H]1N*; Fmoc = O=C(OCC1c2ccccc2-c2ccccc21)*; ξW = NC(Cc1c[nH]c2ccccc12)C(=O)O; ξF = NC(Cc1ccccc1)C(=O)O; Boc = CC(C)(C)OC(=O)*; ξK = NCCCCC(N)C(=O)O; ξT = CC(O)C(N)C(=O)O; tBu = CC(C)(C)*

The subject of this experiment is CEM cells HIV-1 protection, formazan growth assay. Description: NCI AIDS Antiviral Assay. The following applies: for IC50: measured here: growth of uninfected CEM cells. The method in brief: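 Human CEM cells, uninfected and HIV-1-infected, exposed to five drug concentrations; growth measured by soluble formazan assay and scored as percent protection from infection, with protecting compounds retested.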

In general, EC50 refers to the concentration needed to bring the measured effect to its halfway point. A word on the IC50: it is the concentration at which inhibition is half-maximal. A lower IC50 goes with greater potency in that assay.

Turning to `Cc1c(O)ccc(N=O)c1O`, the EC50 is > 200 µM and the IC50 came out at 123 µM.
As to `S=C(N/N=C(/c1ccccc1)c1ccccn1)Nc1cccc(Cl)c1`, the EC50 was > 0.2 µM and the half-maximal inhibitory concentration (IC50) is 0.0891 µM.
For `COc1ccc(-c2cc(-c3cc(OC)c(OC)c(OC)c3)cc(-c3cc4ccccc4oc3=O)n2)cc1`, in that order: > 200 µM and 155 µM.
For `O=C(Nc1ccccc1)n1[nH]c(=O)n(-c2ccccc2)c1=O`, in that order: > 200 µM and > 200 µM.
The like results for `Cc1noc(C(F)(F)Sc2ncccn2)n1` were, in that order, 174 µM and > 200 µM.
Consider `COc1cccc2c1C(=O)c1c(O)c3c(c(O)c1C2=O)C[C@@](O)(C(C)=O)CC3OC1CC(N=[N+]=[N-])C(OC)C(C)O1` (some centres undefined), for which the result was inactive.
For `CC(OC(C)(C)C)C(NC(=O)C(CCCCNC(=O)OC(C)(C)C)NC(=O)C(Cc1c[nH]c2ccccc12)NC(=O)C(Cc1ccccc1)NC(=O)OCC1c2ccccc2-c2ccccc21)C(=O)NC(Cc1ccccc1)C(=O)N[C@@H]1CCC[C@H]1C(=O)OCc1ccccc1` (some centres undefined) (Fmoc-[ξF][ξW][ξK](Boc)[ξT](tBu)[ξF]-X17), the outcome was inactive.
As to `CN1C(=O)CCSC1=S`, the outcome was inactive.
Still for that read-out and setting: in the case of `O=C(O)CNS(=O)(=O)c1ccc(NC(=O)c2ccccc2[N+](=O)[O-])cc1` it was “inactive”.
In the case of `Cn1c(=O)n(C2(C)CSC2)c2ccccc21`, the EC50 is > 562 µM and the 50% inhibitory concentration (IC50) amounted to 178 µM.
As for `CC(C)(C)c1cc2c(OP(c3ccccc3)c3ccccc3)c(c1)Cc1cc(C(C)(C)C)cc(c1OP(c1ccccc1)c1ccccc1)Cc1cc(C(C)(C)C)cc(c1OP(c1ccccc1)c1ccccc1)Cc1cc(C(C)(C)C)cc(c1OP(c1ccccc1)c1ccccc1)C2`, the EC50 is > 1.05 µM and the half-inhibitory concentration (IC50) was > 1.05 µM.
As for `Cc1cc(C)c(/C=N/NS(=O)(=O)c2ccccc2)c(C)c1`, the result was inactive.
With `Cn1cc2ccccc2c1-c1nc(F)nc(Oc2ccc3c(c2)CC[C@@H]2C3CC[C@]3(C)C(O)CCC23)n1` (some centres undefined), the EC50 is > 5.5 µM and the IC50 was > 5.5 µM.
As for `C/C=C(/C)C(=O)O[C@@H]1CCN2CC[C@H](COC(=O)/C(=C/C)CO)C12` (some centres undefined), the EC50 was > 200 µM and the half-maximal inhibitory concentration (IC50) is 107 µM.
For `O=C(Nc1cccc(C2=NCCN2)c1)Nc1cccc(C2=NCCN2)c1`, in that order: > 200 µM and 32.4 µM.
For `Cn1c(COc2ccc(/C=N/Nc3ccnc(N/N=C/c4ccc(OCc5c[n+]6ccccc6n5C)cc4)n3)cc2)c[n+]2ccccc12`, in that order: 3.02 µM and 3.24 µM.
For `COC(=O)C(=O)C(/C=N/C(=S)Nc1ccc(S(=O)(=O)Nc2nccs2)cc1)=C(\O)c1c(C)[nH]c2ccccc12`, in that order: > 200 µM and 72.4 µM.
As to `Cc1ccc(NC(=O)NC(=O)c2ccc([N+](=O)[O-])cc2[N+](=O)[O-])cc1Oc1ncc(Cl)cn1`, the outcome was inactive.
As to `COc1ccc(N(C)CN(C)c2nc(N(C)C)nc(N(C)C)n2)cc1`, the EC50 was > 200 µM and the half-maximal inhibitory concentration (IC50) is 36.3 µM.
The like results for `CC(=O)Oc1ccc2cc(-c3ccccc3OC(C)=O)c(=O)oc2c1` were, in that order, > 200 µM and 74.1 µM.
The like results for `O=C1C2=Nc3ccccc3C(O)(C(=O)O)N2c2ccccc21` (centres undefined) were, in that order, > 200 µM and 16.6 µM.
Consider `COC(=O)C1C2OC(C)(C)OC2CN1S(=O)(=O)c1ccc(C)cc1` (centres undefined), for which the result was inactive.
`O=C(CC1(O)C(=O)Nc2c(Cl)ccc(Cl)c21)c1ccc(Cl)cc1` (centres undefined): the EC50 was > 51.3 µM and the IC50 was > 51.3 µM.
For `CN1CCCC1CCNc1nc(Nc2ccc(Cl)c(Cl)c2)nc2ccc(Cl)cc12` (centres undefined), the EC50 is > 19.1 µM and the IC50 was 3.24 µM.
As to `COc1cccc(-c2[nH]c3cc4c(cc3c(=O)c2C(=O)O)OCO4)c1`, the EC50 was > 200 µM and the 50% inhibitory concentration (IC50) came to 13.8 µM.
`CCC1CN2CCc3cc(OC)c(OC)cc3C2CC1CC1c2cc(OC)c(OC)cc2CCN1C(=O)CNC(=O)OC(C)(C)C` (centres undefined): the result was inactive.
On to `CC(=O)OCC1OC(n2c(C)c(C(C)=O)c(-c3ccco3)c(C#N)c2=S)C(OC(C)=O)C(OC(C)=O)C1OC(C)=O` (centres undefined), for which the EC50 is > 200 µM; the concentration for half-maximal inhibition (IC50) was 112 µM and 87.1 µM.
Regarding `[C-]#[O+].[C-]#[O+].[C-]#[O+].[Re].c1ccc2c(c1)[cH-]c1ccccc12`, the EC50 is > 1.66 µM and the half-maximal inhibitory concentration (IC50) is > 1.66 µM.
With `Cc1cc(C2=CSC3=NCCN23)ccc1Cl`, the EC50 is > 200 µM and the IC50 came out at 151 µM.
The like results for `CCOC(=O)c1c(SC(=O)c2ccc(Cl)cc2)n(-c2ccccc2)c(=S)n(-c2ccccc2)c1=O` were, in that order, > 200 µM and 141 µM.
For `CCCCCCN1CCN(Cc2ccc(N(CC)CC)cc2)C(=O)C1=O`, in that order: > 200 µM and 0.977 µM.
For `COc1ccccc1NC(=O)/C(=C/C1CC(=O)NC1=S)C(C)=O` (centres undefined), in that order: > 200 µM and > 200 µM.
For the molecule `C[C@H]1OCN(C(=O)c2cc3ccccc3cc2SSc2cc3ccccc3cc2C(=O)N2CO[C@H](C)[C@H]2C(=O)O)[C@@H]1C(=O)O`, the EC50 was > 100 µM and the IC50 is > 100 µM.
For the molecule `O=C1NC(N2CCCC(CO)C2)=N/C1=C\c1ccccc1` (centres undefined), the EC50 was > 200 µM and the IC50 is > 200 µM.
As for `CCOC(=O)C12CCC(=O)C=C1[C@@H](C)C(=O)CC2` (some centres undefined), the EC50 is > 1000 µM and the IC50 was determined as 363 µM.
The like results for `Cc1ccc(Nc2nc(NNC(=O)Cc3ccccc3)nc(NNC(=O)c3ccncc3)n2)cc1` were, in that order, > 50.1 µM and > 50.1 µM.
Regarding `Cc1cc(Cl)nc(Nc2nc3ccccc3[nH]2)n1`, the EC50 was > 200 µM and the IC50 was > 200 µM.
Regarding `COC1=C(C(=O)OC(C)(C)C)[C@]2(C)C(C(=O)OC(C)(C)C)C(OC)=C(C(=O)OC(C)(C)C)[C@]2(C)C1C(=O)OC(C)(C)C` (some centres undefined), the outcome was inactive.
For the molecule `O=[N+]([O-])c1cc([As](=O)(O)O)ccc1O`, the EC50 is > 200 µM and the 50% inhibitory concentration (IC50) is > 200 µM.
On to `O=C1NN=C(C2CCCCC2)C12CCCCC2`, for which the EC50 is > 214 µM and the concentration for half-maximal inhibition (IC50) stood at 67.6 µM.
Consider `CCc1ccc(Nc2ccc([N+](=O)[O-])cc2[N+](=O)[O-])cc1`, for which the outcome was inactive.
As for `Cc1ccc(C2=NNc3n[nH]c(=S)n3N2)cc1`, the EC50 is > 75.9 µM and the half-inhibitory concentration (IC50) is > 75.9 µM.
As for `S=C=Nc1ccc(SSc2ccc(N=C=S)cc2)cc1`, the EC50 is > 13.5 µM and the IC50 amounted to 11.2 µM.
Take `CCN(CC)CCN1CCc2c([nH]c3ccccc23)C1c1cccnc1` (centres undefined): the EC50 is > 145 µM and the concentration for half-maximal inhibition (IC50) is > 145 µM.
`COC(=O)C(C(=O)C(=O)Nc1c(Cl)cc([N+](=O)[O-])cc1Cl)c1nc2cc(C)c(C)cc2[nH]c1=O` (centres undefined): the EC50 was > 97.7 µM and the IC50 is > 97.7 µM.
In the case of `O=C1CCC(c2ccc(Cl)cc2)=NN1c1nsc2ccccc12`, the EC50 is > 39.8 µM and the half-inhibitory concentration (IC50) is > 39.8 µM.
As to `C/C(=N/NC(=O)C[n+]1ccccc1)C(CN(CC(C)C)CC(C)C)C(=O)Nc1ccc(C)cc1C` (centres undefined), the EC50 is > 14.1 µM and the IC50 was > 14.1 µM.
Regarding `O=C1[C@H]2ON(c3ccccc3)C(c3ccc([N+](=O)[O-])cc3)[C@H]2C(=O)N1c1ccc(Cc2ccc(N3C(=O)[C@@H]4ON(c5ccccc5)C(c5ccc([N+](=O)[O-])cc5)[C@@H]4C3=O)cc2)cc1` (some centres undefined), the EC50 was > 8.51 µM and the 50% inhibitory concentration (IC50) is > 8.51 µM.
As to `CCOC(=O)C(=O)C(=O)NN(C)C1=NCCN1`, the EC50 was > 200 µM and the IC50 is > 200 µM.
As to `Cc1ccc(S(=O)OC2C3CC4CC(C3)CC2C4)cc1` (centres undefined), the outcome was inactive.
On to `C[C@H](OCc1ccccc1)C(=O)N1CCS(=O)(=O)N2CCC[C@@H]2C1=O`, for which the EC50 was > 490 µM and the IC50 is > 490 µM.
Take `O=C(/C=N/O)Nc1ccc(Cl)c(I)c1`: the EC50 was > 79.4 µM and the IC50 amounted to 64.6 µM.
Turning to `COC(=O)c1c(NC(=O)C(C)C)n[nH]c1NC(=O)C(C)C`, the outcome was inactive.
With `CN(C)Cc1cc(N=Nc2cccc(Cl)c2)ccc1O`, the EC50 is > 20 µM and the IC50 came out at 4.79 µM.
Turning to `CCOC(=O)c1nc2c(OC)nn(O)cc-2c1[N+](=O)[O-]`, the EC50 was > 457 µM and the IC50 amounted to 5.75 µM.
For the molecule `O=C(CCc1cc(O)cc(O)c1)NCCCNC(=O)CCc1cc(O)cc(O)c1`, the EC50 was > 200 µM and the IC50 is > 200 µM.
Take `O=C1Oc2c(ccc3ccccc23)C2OCNCC12` (centres undefined): the EC50 was > 200 µM and the concentration for half-maximal inhibition (IC50) was 129 µM.
With `COC(=O)C1=C2Nc3ccccc3[C@@]23CCN(Cc2ccccc2)C3C[C@H]1C1=CC(OC)OC1OC` (some centres undefined), the EC50 is > 25.7 µM and the IC50 turned out to be 15.1 µM.
Turning to `O=C(O)c1ccc(CS(=O)(=O)c2ccc([N+](=O)[O-])cc2)cc1`, the EC50 was > 22.4 µM and the IC50 was > 22.4 µM.
With `CC(=O)NC(/C=C\C(=O)O)C(=O)O` (centres undefined), the EC50 is > 200 µM and the concentration for half-maximal inhibition (IC50) is > 200 µM.
Turning to `N#Cc1c(N)nc2c(N=Nc3ccccc3)c(N)nn2c1Nc1ccccc1`, the EC50 was > 200 µM and the IC50 was 9.55 µM.
Regarding `O=C(O)c1cc(N=Nc2ccc(/C=C/c3ccc(N=Nc4ccc(O)c(C(=O)O)c4)cc3S(=O)(=O)O)c(S(=O)(=O)O)c2)ccc1O`, the 50% effective concentration (EC50) is 22.4 µM and the IC50 amounted to 36.3 µM.
As for `COc1ccc(Nc2cc(N)nc(N)n2)c(=S)[nH]1`, the EC50 is > 676 µM and the IC50 is 57.5 µM.
For `Nc1ccccc1C(=O)NNC(=O)c1ccccc1O`, in that order: > 200 µM and 16.6 µM.
On to `O=C1C(CN2CCCCC2)CCC1CN1CCCCC1` (centres undefined), for which the EC50 is > 200 µM and the IC50 was 8.13 µM.
`CC(=O)N(C)c1ccc2ncccc2c1[N+](=O)[O-]`: the EC50 is > 1020 µM and the half-maximal inhibitory concentration (IC50) stood at 562 µM.
For `COc1ccc(C2=NNC(=O)OC2c2ccccc2)cc1` (centres undefined), in that order: > 63.1 µM and 7.24 µM.
For `COc1ccc(-c2sc(/N=C/c3ccc(-c4ccccc4)cc3)c(C#N)c2C)cc1OC`, in that order: > 200 µM and 30.2 µM.
